Results as given in patent US20030139442A1, “Vasoactive agents” (priority 2002, published 2003).

Molecular target: T1, human GPR14 (Homo sapiens, UniProt Q9UKP6)
T1 construct: expressed in transfected cells
T1 sequence (Q9UKP6 1-389): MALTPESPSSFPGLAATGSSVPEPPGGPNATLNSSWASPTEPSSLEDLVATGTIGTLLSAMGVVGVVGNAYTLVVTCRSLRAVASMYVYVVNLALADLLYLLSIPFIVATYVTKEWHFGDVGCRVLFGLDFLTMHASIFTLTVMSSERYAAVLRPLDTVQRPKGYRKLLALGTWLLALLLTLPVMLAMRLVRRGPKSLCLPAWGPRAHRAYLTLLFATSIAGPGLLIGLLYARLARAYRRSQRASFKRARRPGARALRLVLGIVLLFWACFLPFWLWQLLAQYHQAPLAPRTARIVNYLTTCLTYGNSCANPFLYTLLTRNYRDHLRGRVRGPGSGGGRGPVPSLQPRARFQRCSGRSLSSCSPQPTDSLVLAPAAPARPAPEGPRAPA
Experiment: Inhibition of binding of [125I]-labeled human urotensin II to GPR14 using human GPR14-expressing CHO cell fraction
Details: 1 nM [125I]-labeled human urotensin II; human GPR14-expressing CHO cell membrane fraction; 25° C., 3 hours; read-out: Inhibitory concentration (concentration showing 50% inhibition of human GPR14 binding activity)
Protocol: To 1×10^8 CHO/GPR14 cells were added 10 ml of homogenate buffer (10 mM NaHCO3, 5 mM EDTA, 0.5 mM PMSF, 1 μg/ml pepstatin, 4 μg/ml E64, 20μg/ml leupeptin), and disrupted using Polytron (12,000 rpm, 1 minute). Cell debris solution was centrifuged at 1,000 g for 15 minutes to obtain a supernatant. The supernatant was then […] (in Beckman type 30 rotor, 30,000 rpm, 1 hour), and the resultant precipitant was collected as human GPR14-expressing CHO cell fraction.
Isotope-labeled human urotensin II to be used in experiments for testing inhibition of binding was prepared as described below. 5 μg of human urotensin II (available from Peptide Institute, Inc.) was dissolved in 25 μl of 0.4M sodium acetate (pH 5.6). […]
Human GPR14-expressing CHO cell fraction was diluted in a membrane diluting buffer (20 mM phosphate buffer (pH7.3), 150 mM NaCl, 5 mM MgCl2, 0.1% BSA, 0.05% CHAPS, 0.5 mM PMSF, 0.1 μg/ml Pepstatin, 20 μg/ml Leupeptin, 4 μg/ml E-64) to prepare a solution of cell membrane fraction (protein concentration:3 μg/ml) for assay. […] Next, the filter was washed three times with membrane diluting buffer (0.2 ml), added with 20 μl of Microscinti 20 (Packard), and determined for radioactivity in Topcount (Packard). Specific-binding is calculated by subtracting non-specific binding from the total binding. […]

## Nc1c2c(nc3ccc(-c4ccsc4)cc13)N(Cc1ccccc1)CC2 [compound 3]
  IC50: 33 nM
